Assay results reported in US10093621B2, “4-oxo-N-(4-hydroxyphenyl)retinamide derivatives as therapeutic agents for the treatment of cancer” (FONDAZIONE IRCCS ISTITUTO NAZIONALE DEI TUMORI, priority 2014, dated 2018).
Blank lines part the entries; values can stand above or below the molecule they belong to.

Columns and labels:
[1] = test system: A2780; experiment: Antiproliferative activity, sulphorhodamine B assay, 72 hours of treatment; type: cell-based; conditions: A2780 (ovary)
Procedure: (§1) The antiproliferative activity of the various compounds 1a-c (in both monotherapy and combined treatment) on the different tumour cell lines was evaluated by sulphorhodamine B assay after 72 hours of treatment, and the dose able to inhibit 50% of growth (IC50) was calculated for the monotherapy (the results are summarized in Table 1 and Table 3), while the Kern Index (KI) was determined as the synergism/antagonism […] index for the combined treatment (the results are depicted in FIG. 2).

[2] = test system: ovarian cancer cells (A2780); experiment: Cell cycle and apoptosis in ovarian cancer cells; type: cell-based
[3] = In vivo plasma levels by HPLC after i.p. administration; parameters: species or system nude mice; conditions: for Plasma level: 5 hours after last administration, 5% DMSO, H2O
Procedure: To evaluate the plasma levels of salt 1a, 4-oxo-4-HPR (120 mg/kg) and salt 1a (sodium 4-aminoxyacetate-4-HPR) (60 and 100 mg/kg) were administered i.p. to nude mice for 4 consecutive days (once a day), and the plasma levels were evaluated by HPLC 5 hours after the last administration (the results are summarized in Table 2).

[4] = test system: IGROV-1; experiment: Antiproliferative activity, sulphorhodamine B assay, 72 hours of treatment; type: cell-based, human; conditions: IGROV-1 (ovary)
Procedure: as §1

[5] = test system: MDA-MB-231; experiment: as above; type: cell-based, human; conditions: MDA-MB-231 (breast)
Procedure: as §1

[6] = test system: T47-D; experiment: as above; type: cell-based; conditions: T47-D (breast)
Procedure: as §1

[7] = test system: human breast cancer cells (MDA-MB-231); experiment: In vivo antitumor activity, breast cancer model (mammary fat pad); conditions: 90 mg/kg
Procedure: As regards the breast cancer model, human breast cancer cells (MDA-MB-231) were inoculated into the mammary fat pad of NOD/SCID-gamma mice, and treatment with the salt 1a began one week after tumor cell inoculation (dose: 90 mg/kg; 4 days/week for 5 weeks). The animals were examined twice a week to check their weight and any signs of toxicity. Tumour growth in the various groups (control and treated) was evaluated, and the differences were statistically analysed.

[8] = test system: STO; experiment: Antiproliferative activity, sulphorhodamine B assay, 72 hours of treatment; type: cell-based, human; conditions: STO (mesothelioma)
Procedure: as §1

[9] = test system: MESO; experiment: as above; type: cell-based; conditions: MESO (mesothelioma)
Procedure: as §1

[10] = test system: BT-474; experiment: as above; type: cell-based; conditions: BT-474 (breast)
Procedure: as §1

[11] = test system: JVM-2; experiment: as above; type: cell-based; conditions: JVM-2 (lymphoma)
Procedure: as §1

[12] = test system: SKOV-3; experiment: as above; type: cell-based; conditions: SKOV-3 (ovary)
Procedure: as §1

[13] = test system: Sk-N-5Y; experiment: as above; type: cell-based; conditions: Sk-N-5Y (neuroblastoma)
Procedure: as §1

[14] = test system: SK-N-SH; experiment: as above; type: cell-based; conditions: SK-N-SH (neuroblastoma)
Procedure: as §1

[15] = test system: SK-N-BE; experiment: as above; type: cell-based; conditions: SK-N-BE (neuroblastoma)
Procedure: as §1

[16] = test system: cell cycle; experiment: Cell cycle, propidium iodide staining, FACS; type: cell-based
Procedure: (§2) As regards to the evaluation of the mechanism of action, ROS generation was determined after 5 hours of treatment with the use of the 5-(and -6)-chloromethyl-2′, 7′-dichlorodihydrofluorescein diacetate (CM-H2DCFDA) probe, while the cell cycle was evaluated by staining with propidium iodide. Cytofluorimetric analysis (FACS) was conducted in both cases.

[17] = test system: tumour cell lines of different histotypes; experiment: Antiproliferative activity of combined treatment, sulphorhodamine B assay, Kern Index; type: cell-based; conditions: 72 hours, preliminary
Procedure: as §1

[18] = test system: ROS; experiment: ROS generation, CM-H2DCFDA probe, FACS; type: cell-based; conditions: 5 hours of treatment
Procedure: as §2

[19] = test system: ovarian cancer (IGROV-1) cells; type: in vivo
Procedure: For the ovarian model, nude mice were inoculated i.p. with IGROV-1 cells, and treatment with the salt 1a began one day after tumor cell inoculation (doses: 30, 60 and 90 mg/kg i.p.; 5 days/week for 4 weeks). The control mice were treated with the same solvent as used to dissolve the salt. The animals were examined twice a week to check their weight and any signs of toxicity. The survival time of the various groups (control and treated) was evaluated, and the differences were statistically analysed.

[20] = test system: human mesothelioma (STO) cells; experiment: In vivo antitumor activity, mesothelioma xenograft (s.c.); parameters: species or system mice; conditions: 30 and 60 mg/kg i.p., 5 days/week for 4 weeks
Procedure: As regards to mesothelioma, the mice were inoculated s.c. with STO cells, and treatment with the salt 1a began one day after tumor cell inoculation (doses: 30 and 60 mg/kg i.p.; 5 days/week for 4 weeks). The control mice were treated with the same solvent as used to dissolve the salt. The animals were examined twice a week to check their weight and any signs of toxicity. Tumour growth in the various groups (control and treated) was evaluated, and the differences were statistically analysed (the results are shown in FIG. 3a).

- IC50 [5]: 4260 nM
- IC50 [1]: 3590 nM
Compound: CC1=C(/C=C/C(C)=C/C=C/C(C)=C/C(=O)Nc2ccc(O)cc2)C(C)(C)CCC1=NOCCCC(=O)O [LOM1098]
- IC50 [4]: 3540 nM
- IC50 [6]: 4200 nM

- IC50 [5]: 2950 nM
- IC50 [1]: 2370 nM
Compound: CCCCC(ON=C1CCC(C)(C)C(/C=C/C(C)=C/C=C/C(C)=C/C(=O)Nc2ccc(O)cc2)=C1C)C(=O)O (centres unmarked) [LOM1133]
- IC50 [4]: 2190 nM
- IC50 [6]: 3000 nM

Continued, molecule first:

Compound: CC(C=CC1=C(C)C(=NOCCN)CCC1(C)C)=CC=CC(C)=CC(=O)Nc1ccc(O)cc1 [Compound 1d, 9-[3-(2-Amino-ethoxyimino)-2,6,6-trimethyl-cyclohex-1-enyl]-3,7-dimethylnona-2,4,6,8-tetraenoic acid (4-hydroxy-phenyl)amide]
- IC50 ([1]; Homo sapiens): 955 nM
- Apoptotic activity (sub-G1 peak) [2]: apoptotic (sub-G1 peak)
- Cell cycle arrest [2]: induced a cycle arrest in G2-M
- melting point: 134 °C

Compound: CC1=C(/C=C/C(C)=C/C=C/C(C)=C/C(=O)Nc2ccc(O)cc2)C(C)(C)CCC1=O [Compound 4-oxo-4-HPR, 4-oxo-N-(4-hydroxyphenyl)retinamide]
- Plasma level ([3]; i.p. once a day for 4 days, 5% cremophor): 0.8 μM ± 0.4
- Accumulation of the compound in proximity to the inoculation site ([3]; treated mice, i.p.): observed

Compound: CC1=C(/C=C/C(C)=C/C=C/C(C)=C/C(=O)Nc2ccc(O)cc2)C(C)(C)CCC1=NOCC(=O)[O-].[Na+] [Salt 1a]
- Tumour growth ([7]; MDA-MB-231, 4 days/week for 5 weeks, p=0.01): reduced tumour growth
- Signs of toxicity ([7]; MDA-MB-231 model): without evident signs of severe toxicity
- IC50 [8]: 1480 nM
- IC50 [4]: 3820 nM
- IC50 [5]: 3970 nM
- IC50 [9]: 1280 nM
- IC50 [10]: 3690 nM
- IC50 [11]: 1110 nM
- IC50 [12]: 5960 nM
- IC50 [13]: 1300 nM
- IC50 [6]: 3950 nM
- IC50 [14]: 1900 nM
- IC50 [15]: 1550 nM
- IC50 [1]: 2780 nM
- Cell cycle arrest during the mitotic phase (antitubulin activity) [16]: the cell cycle arrest during the mitotic phase
- Activity of combined treatment (Kern Index) ([17]; combined with 4-HPR): synergic activity
- Activity of combined treatment (Kern Index) ([17]; combined with cisplatin): synergic activity
- Activity of combined treatment (Kern Index) ([17]; combined with paclitaxel): synergic activity
- ROS generation (pro-apoptotic activity) [18]: the generation of ROS
- Plasma level ([3]; 60 mg/Kg i.p. once a day for 4 days): 60.3 μM ± 2.52
- Plasma level ([3]; 100 mg/Kg i.p. once a day for 4 days): 63.7 μM ± 2.08
- Toxicity for the animals ([3]; daily doses of 60 and 100 mg/kg): does not possess high toxicity
- Solubility compared with the parent compound ([3]; from in vivo experiments in murine models): far more soluble than the parent compound
- Plasma levels, times higher than 4-oxo-4-HPR ([3]; murine models, versus 4-oxo-4-HPR): up to 60 times
- Survival of the mice ([19]; IGROV-1 i.p., doses of 60 and 90 mg/kg i.p., 5 days/week for 4 weeks, p<0.01): significantly increased the survival
- Signs of toxicity ([19]; IGROV-1 model, 60 and 90 mg/kg): without any evident signs of severe toxicity
- Tumour growth [20]: activity trend of the compound, although it did not reach statistical significance
